In the METLIN SMRT retention time set (Domingo-Almenara et al. 2019):

assay: gradient 5% acetonitrile 3 min, to 50% in 2 min, to 85% in 15 min, held 3 min, 100 µL/min; conditions: column: Zorbax Extend-C18 2.1 x 50 mm; eluents: water / acetonitrile, 0.1% formic acid
Procedure, shortened: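 Over 3 months, pure standards in mixtures of ~100 molecules were run by HPLC coupled to a quadrupole time-of-flight mass spectrometer in positive and negative ionization mode. The column was a Zorbax Extend-C18 (2.1 × 50 mm, 1.8 μm) at 100 μL/min, eluted with water and acetonitrile each holding 0.1% formic acid, with 40 μL dead and 900 μL dwell volumes. Retention time was determined from adduct peaks chosen by software and checked manually.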

SMILES | RP-LC retention time
O=C(Cn1nc2c3cc(-c4ccc(Cl)cc4)nn3ccn2c1=O)NC1CCCC1 | 1110 s
O=C(CCSc1ccccc1)N1CCN(c2ccc(-c3ccccn3)nn2)CC1 | 644 s
CS(=O)(=O)N1CCC(CNC(=O)NC(c2ccccc2)c2ccccc2)CC1 | 732 s
CCN(Cc1ccccc1)Cc1nc(-c2ccc(N3CCCC(C)C3)nc2)no1 (stereo unspecified) | 1020 s
Cn1nc(C(=O)N2CCN(c3ccccc3Cl)CC2)ccc1=O | 727 s
CCc1ccc2nc(Nc3ncc4c(n3)CCCC4=O)nc(C)c2c1 | 650 s
COc1ccc(CNC(=O)c2cn(C)c3ncccc23)cc1 | 711 s
Cc1nc2cc(-c3noc(-c4ccc(C#N)cc4)n3)ccc2o1 | 1010 s
CCOc1ccc(N2C=C(C(=O)OC)S(=O)(=O)c3ccccc32)cc1 | 887 s
COc1ccc(-c2nnc3ccc(SCC(=O)Nc4nc(C)cs4)nn23)cc1OC | 606 s
CC(C)n1c(N2CCN(C(=O)c3ccnn3C)CC2)cc(=O)n(C(C)C)c1=O | 725 s
CCOC(=O)C(=O)Nc1nnc(SCc2nnc(-c3ccccc3C)o2)s1 | 829 s
CCn1c(=O)n(Cc2cccc(Cl)c2)c(=O)c2cnc(-c3ccc(OC)cc3)nc21 | 1340 s
COCCNS(=O)(=O)c1cc(-c2[nH]ncc2C(=O)N2CCCC2)oc1C | 591 s
CCOc1ccc(OCC)c(NC(=O)C2=C(C)C(=O)OC23CCCCCC3)c1 | 1250 s
O=C(Cn1ncn2nc(-c3ccccc3)cc2c1=O)NCCCN1CCCC1 | 602 s
O=C(NCCc1ccccc1)Nc1ccccc1NC(=O)c1ccsc1 | 796 s
COc1ccc2c(c1)C1(CCN(S(=O)(=O)c3ccc(C#N)cc3)C1)C(=O)N2C (stereo unspecified) | 880 s

SMILES | RP-LC retention time
O=C(C1CCN(c2nc3ccc(-c4ccc(F)cc4)nc3s2)CC1)N1CCCC1 | 944 s
Cc1ccc(NS(=O)(=O)c2cc(-c3[nH]ncc3C(=O)N3CCCC3)oc2C)c(Cl)c1 | 741 s
O=C(NC1CCCC1)N1CCN(Cc2nc3cc(C(=O)N4CCCCC4)ccc3o2)CC1 | 644 s
CC(=O)NCc1csc(C2CCN(C(=O)COc3ccccc3)CC2)n1 | 646 s
CC(C(=O)NCCc1c[nH]c2ccccc12)n1c2ccccc2c2cnn(C)c(=O)c21 (stereo unspecified) | 829 s
Cc1cccc(CC(=O)NCC2CCN(Cc3ccccc3)CC2)c1 | 566 s
Cc1ccc2c(C(=O)NCc3cc(F)cc(F)c3)cc(NC(=O)C(C)C)cc2n1 | 666 s
O=C(C1CCN(c2nc3ccc(-c4cccs4)nc3s2)CC1)N1CCCCC1 | 911 s
O=C(Nc1ccc(Cl)cc1)c1cn(CC(O)c2ccc3c(c2)OCO3)nn1 (stereo unspecified) | 841 s
Cc1cc(C)cc(Nc2cc(C)n3c(=O)n(Cc4cc(=O)n5ccccc5n4)nc3n2)c1 | 993 s
COC(=O)c1ncn2c1C(=O)N(CCCc1ccccc1)C(C)(C(=O)NCc1ccccc1)C2 (stereo unspecified) | 761 s
CCOC(=O)C1=C(C)NC(=O)NC1c1ccc(OCC(=O)N2CCCCC2)cc1 (stereo unspecified) | 682 s
Cc1cc(C(=O)Nc2ccc(CC(=O)NCc3cccs3)cc2)c(C)o1 | 762 s
CCNC(=O)C1c2ccccc2C(=O)N(CC(C)C)C1c1cccs1 (stereo unspecified) | 818 s
Cc1cc(Cl)ccc1NC(=O)Cn1cnc2nc3c(cc2c1=O)CCCC3 | 770 s
CCCCn1cc(S(=O)(=O)Nc2cccc(OC)c2)c2cccnc21 | 912 s
CC1CCCN(c2nn3c(C(=O)NCCc4c[nH]c5ccccc45)cc(=O)nc3s2)C1 (stereo unspecified) | 838 s
COc1cccc(C2CC(c3cccs3)=NN2C(=O)C(OC)c2ccccc2)c1O (stereo unspecified) | 937 s
